Consider 19 molecules from PMC9035832, “Synthesis and Evaluation of a Non-Peptide Small-Molecule Drug Conjugate Targeting Integrin αVβ3” (Frontiers in Chemistry, 2022).

The IC50 is the point on the concentration scale where inhibition reaches its midpoint. A lower IC50 goes with inhibition by little substance.

One experiment has as its target T1, integrin αVβ3 (Homo sapiens, UniProt P05106+P06756).
T1 construct: using the isolated extracellular domain of integrins αVβ3 and α5β1; purchased Sino Biological
As to the kind of experiment: ELISA-like competitive integrin binding assay (vitronectin-coated plates). On the procedure:
(§1) An ELISA-like assay using the isolated extracellular domain of integrins αVβ3 and α5β1 was performed in flat-bottom 96-well immuno plates (Brand) to determine the activities of the synthesized compounds. All wells were coated overnight with the native integrin ligand vitronectin or fibronectin (1) (Table 1) in a carbonate buffer (150 µl/well), followed by washing of each well with the PBS-T buffer (3 × 200 µl/well) (Table 1) and blocking for 1 h with the TS-B buffer (150 µl/well) at RT. […] The protein-coated assay plate was washed with the PBS-T buffer (3 × 200 µl/well), and 50 µl of the dilution series was transferred to the assay plate wells B–G. The TS-B buffer was filled into row A (100 µl/well) as the negative control and row H (50 µl/well) as the positive control. Afterward, the corresponding human integrin (2, 50 µl/well) (Table 1) in the TS-B buffer was added to row B–H and incubated for 1 h at RT. After washing the assay plate with the PBS-T buffer (3 × 200 µl/well), the primary antibody (3, 100 µl/well) (Table 1) was transferred to each well and incubated for 1 h at RT. Then the plate was washed with the PBS-T buffer (3 × 200 µl/well), treated with the secondary antibody (4, 100 µl/well) (Table 1), and incubated for 1 h at RT. The plate was washed with the PBS-T buffer (3 × 200 µl/well), and SeramunBlau® fast2 (Seramun Diagnostics GmbH, 50 µl/well) was added to each well. Staining was stopped with 3 M aq. […] The absorbance was measured with a plate reader at 450 nm and corrected by subtraction of the absorbance at 620 nm. Afterward, the resulting values were plotted and analyzed using OriginPro® 2020b where the inflection point of a DoseResp fit describes the IC50 value. All compounds were tested in duplicates or triplicates for both integrins.
(§2) The affinities (Table 4) of the RGD mimetics (Table 3) toward the integrins αVβ3 and α5β1 were determined in a competitive enzyme-linked immunosorbent assay (ELISA) using recombinant human integrins with the native ligands vitronectin and fibronectin as described in the literature ([Mas-Moruno et al., 2016b]). […]
(§3) Table S1: Proteins and buffers applied in the ELISA-like assay.
(§4) An ELISA-like assay using the isolated extracellular domain of integrins αVβ3 and α5β1 was performed in flat-bottom 96-well immuno plates (Brand) to determine the activities of the synthesised compounds.
(§5) All wells were coated overnight with the native integrin ligand vitronectin or fibronectin (Table S1, (1)) in carbonate buffer (150 µL/well), followed by washing of each well with PBS-T buffer (3×200 µL/well) (Table S1) and blocking for 1 h with TS-B buffer (150 µL/well) at RT. A dilution […]
(§6) 1:10 dilution) in TS-B buffer. The protein-coated assay plate was washed with PBS-T buffer (3×200 µL/well) and 50 µL of the dilution series was transferred to the assay plate wells B-G. TS-B buffer was filled into row A (100 µL/well) as negative control and row H (50 µL/well) as positive control. Afterwards, the corresponding human integrin (2, 50 µL/well)) (Table S1) in TS-B buffer was added to row B-H and incubated for 1 h at RT. After washing the assay plate with PBS-T buffer (3×200 µL/well) the primary antibody (3, 100 µL/well) (Table S1) was transferred to each well and incubated for 1 h at RT. Then the plate was washed with PBS-T buffer (3×200 µL/well), treated with […]
`O=C(N[C@@H](Cc1ccc(OCCCNC2=NCCN2)cc1)C(=O)O)c1ccccc1` [5aa] showed an IC50 of 38.5 ± 24.3 nM.
Still for that read-out and setting: the result for `O=C(N[C@@H](Cc1ccc(OCCCNC2=NCCCN2)cc1)C(=O)O)c1ccccc1` [5ac] reads 18.1 ± 3.68 nM; that for `O=C(N[C@@H](Cc1ccc(OCCCNc2ncccn2)cc1)C(=O)O)c1ccc(O)cc1` [5bb], 6530 nM; that for `O=C(N[C@@H](Cc1ccc(OCCCNC2=NCCN2)cc1)C(=O)O)c1cccc(O)c1` [5ca], 9.29 ± 5.77 nM.
Same read-out and setting: the result for `O=C(N[C@@H](Cc1ccc(OCCCNc2ncccn2)cc1)C(=O)O)c1cccc(O)c1` [5cb] reads 7700 nM; that for `O=C(N[C@@H](Cc1ccc(OCCCNC2=NCCCN2)cc1)C(=O)O)c1cccc(O)c1` [5cc], 452 ± 120 nM; that for `O=C(N[C@@H](Cc1ccc(OCCCNC2=NCCN2)cc1)C(=O)O)OCc1ccccc1` [5da], 1.32 ± 0.11 nM.
For `O=C(N[C@@H](Cc1ccc(OCCCNc2ncccn2)cc1)C(=O)O)OCc1ccccc1` [5db], the IC50 is 237 ± 69.7 nM.
On the same count and under the same terms, the result for `O=C(N[C@@H](Cc1ccc(OCCCNC2=NCCCN2)cc1)C(=O)O)OCc1ccccc1` [5dc] reads 4.68 ± 4.47 nM; that for `O=C(N[C@@H](Cc1ccc(OCCCCNC2=NCCN2)cc1)C(=O)O)c1ccccc1` [6aa], 25.8 ± 6.77 nM.
On the same count and under the same terms, the result for `O=C(N[C@@H](Cc1ccc(OCCCCNc2ncccn2)cc1)C(=O)O)c1ccccc1` [6ab] reads 6170 nM; that for `O=C(N[C@@H](Cc1ccc(OCCCCNC2=NCCN2)cc1)C(=O)O)c1ccc(O)cc1` [6ba], 1900 ± 175 nM.
Still for that read-out and setting: under `O=C(N[C@@H](Cc1ccc(OCCCCNC2=NCCCN2)cc1)C(=O)O)c1ccc(O)cc1` [6bc] stands 38.7 ± 15.5 nM; under `O=C(N[C@@H](Cc1ccc(OCCCCNC2=NCCCN2)cc1)C(=O)O)c1cccc(O)c1` [6cc], 90.4 ± 31.3 nM.
For `O=C(N[C@@H](Cc1ccc(OCCCCNC2=NCCN2)cc1)C(=O)O)OCc1ccccc1` [6da], the IC50 came out at 1.2 ± 0.11 nM.
Still for that read-out and setting: under `O=C(N[C@@H](Cc1ccc(OCCCCNC2=NCCCN2)cc1)C(=O)O)OCc1ccccc1` [6dc] stands 0.57 ± 0.03 nM; under `O=C(N[C@@H](Cc1ccc(OCCCCCNC2=NCCN2)cc1)C(=O)O)c1ccccc1` [7aa], 38.5 ± 9.02 nM.
Same read-out and setting: under `O=C(N[C@@H](Cc1ccc(OCCCCCNC2=NCCCN2)cc1)C(=O)O)c1ccccc1` [7ac] stands 58.8 ± 14.4 nM; under `O=C(N[C@@H](Cc1ccc(OCCCCCNc2ncccn2)cc1)C(=O)O)c1ccc(O)cc1` [7bb], 8840 nM.

Another experiment concerns the target T2, integrin α5β1 (Homo sapiens, UniProt P05556+P08648).
T2 construct: using the isolated extracellular domain of integrins αVβ3 and α5β1; purchased R&D
Description: ELISA-like competitive integrin binding assay (fibronectin-coated plates). On the procedure:
as §1, §2, §3, §4, §5, §6
For the molecule `O=C(N[C@@H](Cc1ccc(OCCCNC2=NCCN2)cc1)C(=O)O)c1ccccc1` [5aa], the IC50 came out at 25.2 ± 7.35 nM.
The molecule `O=C(N[C@@H](Cc1ccc(OCCCNC2=NCCCN2)cc1)C(=O)O)c1ccccc1` [5ac] displayed an IC50 of 17.4 ± 3.34 nM.
On the same count and under the same terms, under `O=C(N[C@@H](Cc1ccc(OCCCNc2ncccn2)cc1)C(=O)O)c1ccc(O)cc1` [5bb] stands greater than 10000 nM.
Still for that read-out and setting: the result for `O=C(N[C@@H](Cc1ccc(OCCCNC2=NCCN2)cc1)C(=O)O)c1cccc(O)c1` [5ca] reads 30.5 ± 20.7 nM; that for `O=C(N[C@@H](Cc1ccc(OCCCNc2ncccn2)cc1)C(=O)O)c1cccc(O)c1` [5cb], greater than 10000 nM.
`O=C(N[C@@H](Cc1ccc(OCCCNC2=NCCCN2)cc1)C(=O)O)c1cccc(O)c1` [5cc] gave an IC50 of 32.8 ± 11.2 nM.
For the molecule `O=C(N[C@@H](Cc1ccc(OCCCNC2=NCCN2)cc1)C(=O)O)OCc1ccccc1` [5da], the IC50 was 162 ± 36 nM.
Still for that read-out and setting: under `O=C(N[C@@H](Cc1ccc(OCCCNc2ncccn2)cc1)C(=O)O)OCc1ccccc1` [5db] stands greater than 10000 nM.
On the same count and under the same terms, under `O=C(N[C@@H](Cc1ccc(OCCCNC2=NCCCN2)cc1)C(=O)O)OCc1ccccc1` [5dc] stands 71.6 ± 16.1 nM.
Same read-out and setting: the result for `O=C(N[C@@H](Cc1ccc(OCCCCNC2=NCCN2)cc1)C(=O)O)c1ccccc1` [6aa] reads 175 ± 73.7 nM; that for `O=C(N[C@@H](Cc1ccc(OCCCCNc2ncccn2)cc1)C(=O)O)c1ccccc1` [6ab], greater than 10000 nM; that for `O=C(N[C@@H](Cc1ccc(OCCCCNC2=NCCN2)cc1)C(=O)O)c1ccc(O)cc1` [6ba], 35.2 ± 18.4 nM.
`O=C(N[C@@H](Cc1ccc(OCCCCNC2=NCCCN2)cc1)C(=O)O)c1ccc(O)cc1` [6bc] registered an IC50 of 511 ± 183 nM.
On the same count and under the same terms, under `O=C(N[C@@H](Cc1ccc(OCCCCNC2=NCCCN2)cc1)C(=O)O)c1cccc(O)c1` [6cc] stands 107 ± 32 nM; under `O=C(N[C@@H](Cc1ccc(OCCCCNC2=NCCN2)cc1)C(=O)O)OCc1ccccc1` [6da], 901 ± 223 nM.
Same read-out and setting: the result for `O=C(N[C@@H](Cc1ccc(OCCCCNC2=NCCCN2)cc1)C(=O)O)OCc1ccccc1` [6dc] reads 745 ± 117 nM.
Still for that read-out and setting: under `O=C(N[C@@H](Cc1ccc(OCCCCCNC2=NCCN2)cc1)C(=O)O)c1ccccc1` [7aa] stands 1690 nM; under `O=C(N[C@@H](Cc1ccc(OCCCCCNC2=NCCCN2)cc1)C(=O)O)c1ccccc1` [7ac], 2770 nM.
In turn, `O=C(N[C@@H](Cc1ccc(OCCCCCNc2ncccn2)cc1)C(=O)O)c1ccc(O)cc1` [7bb] yielded an IC50 greater than 10000 nM.
